The text below walks through data of patent publication US9447020B2, “Polyunsaturated fatty acid monoglycerides, derivatives, and uses thereof” (SCF PHARMA INC., priority 2013, dated 2016).

One data set concerns SW620 cells. As to the kind of experiment: Effect on growth of SW620 cells (cell counting, trypan blue). It counts as cell-based, Human. The following applies: for IC50: SW620 colorectal carcinoma cells, 48 h treatment, 0.2% FBS, cumulative concentration response curve. The procedure:
Human SW620 colorectal carcinoma cells were obtained from the American Type Culture Collection (ATCC) and maintained in Leitbovitz's L-15 medium containing 10% FBS, 10 mM HEPES, 2.2 g/L Na2C03 and 10 units/ml penicillin, 100 μg/ml streptomycin. Cells were grown in a 5% CO2 incubator at 37° C. A predefined number of SW620 cells were allowed to grow in 24 wells plates (1×10^4 cells/well) for 3 days until cells reached 80% confluence. Then, cells were starved in Leitbovitz's medium without FBS for 8 h. Then, the culture medium was replaced with Leitbovitz+0.2% FBS and different concentrations of MAG-DHA, MAG-EPA or MAG-DPA (0.1, 0.3, 1, 3, 10, 30 and 100 μM) were added to each well. Culture media were changed every 24 h and cells were treated for 48 h. After 48, the medium was removed from the culture plates and 0.05% trypsing EDTA was used to detach the cells from the surface of the culture plates. The harvested cells were counted, both the viable and dead ones, using a Countess Automated Cell Counter (Invitrogen Inc.). Briefly, for each condition an appropriated cell dilution was prepared from the harvested cells and an aliquot was mixed with an equal volume of 0.4% trypan blue, and 10 μl was transferred into each side of a Countess™ chamber slide. All concentrations tested were performed in triplicata and were representative of 5 independent experiment.
FIG. 2 represents an in vitro cumulative concentration response curves (CCRC) of MAG-DHA, MAG-EPA and MAG-DPA ([…]) on SW620 cell growth.

Data set [1] deals with A549 human cancer cell line. The data set is described as follows: In vivo tumor xenograft experiment: tumor tissue fatty acid composition after oral MAG-DHA. The following applies: A549 xenografts in female CD-1 nude mice; per os 618 mg/kg daily for 48 days; tumors harvested 24 hours after treatment completion; HPLC-MS. The procedure: Female CD-1 nude mice were obtained from Charles River Laboratories (Montreal, Qc, Canada). All studies involving mice were approved by the institutional animal care committee (Protocol: #237-10). Human A549 xenografts were established in 4-week-old female CD-1 nude mice. Mice were inoculated with 0.2 ml of a solution of 1×10^6 A549 cells subcutaneously on the right flank. Mice were randomly assigned into 3 groups, control (untreated), corn oil and MAG-DHA (CA2672513, CA2677670) treated (n=6 per group). Corn oil and MAG-DHA were administrated per os (618 mg/kg) daily following cell inoculation. Treatments were continued for 48 days. Mice were sacrificed when tumor volume reached ≈1.5 cm3 in the control group. Tumor tissues were harvested 24 hours after treatment completion. Tumor tissue fatty acids compositions were measured using a high-performance liquid chromatography (HPLC)-MS method [Gagne S and al. J Lipid Res 2007 January; 48(1):252-9] modified to detect complete fatty acid composition. Data were acquired in SIM mode corresponding to the following fatty acids: C20:4 (AA), C20:5 (EPA), C22:5 (DPA), C22:6 (DHA). The linear calibration curves were obtained in the concentration range of 2 to 500 μg/ml
FIG. 1 represents the fatty acids compositions of tumors after MAG-DHA oral supplementation.

The term IC50 denotes the concentration that inhibits the measured activity by half. A lower IC50 goes with higher potency. `CC/C=C\C/C=C\C/C=C\C/C=C\C/C=C\CCCCCC(=O)OCC(O)CO` (stereo not drawn) [MAG-DHA, sn1(3)-all-cis-4,7,10,13,16,19-docosahexaenoylglyceride] registered an IC50 in the data set on SW620 cells of 2900 nM. For the same compound, in data set [1], the “fatty acids compositions of tumors (EPA, DHA, DPA) compared to control and corn oil groups” value was “significant increase in EPA, DHA and DPA”.
Take `CC/C=C\C/C=C\C/C=C\C/C=C\C/C=C\CCCCCC(=O)OCC(O)CO` (stereo not drawn) [MAG-DPA, sn1(3)-all-cis-7,10,13,16,19-docosapentaenoylglyceride]: in the data set with SW620 cells (SW620 cell growth, comparison of IC50 values), the “times more active than MAG-EPA or MAG-DHA” value is listed as 10 times. For the same compound, 370 nM corresponded to half-maximal inhibition in the data set with SW620 cells (IC50).
Regarding `CC/C=C\C/C=C\C/C=C\C/C=C\C/C=C\CCCC(=O)OCC(O)CO` (stereo not drawn) [MAG-EPA, sn1(3)-all-cis-5,8,11,14,17-eicosapentaenoylglyceride], the IC50 with SW620 cells (Homo sapiens, SW-620, 48 h) came to 3200 nM. In other words, the single-digit micromolar range.
